Experimental data published in US20260055113A1, “HETEROARYL COMPOUNDS FOR THE TREATMENT OF CANCER” (Hoffmann-La Roche Inc., priority 2022, published 2026).

What was measured:
CD73 = CD73 (Homo sapiens (Human), UniProt P21589); test: CD73 cellular assay (MDA-MB-231 cells, malachite readout); assay type: cell-based; conditions: AMP substrate, 45 min, read-out: Cellular IC50 against CD73
Experimental: After incubating with compounds for 30 minutes, 40 μL of AMP working solution (200 μM AMP in assay buffer) was added into each well in the assay plate. The assay plate was then incubated in a 5% CO2 incubator (Thermo Fisher Scientific) at 37° C. for 45 min. After the reaction was completed, 50 μL of the supernatants was collected and transferred into a new 384 well plate. 10 μL of Malachite A was added to each well in the assay plate and incubated for 10 minutes. 10 μL of Malachite B was then added to each corresponding well of the plate and incubated for 30 minutes.

[1] = Human microsomal stability assay; assay type: in vitro ADME; conditions: human liver microsomes 0.5 mg/mL, 1 μM test compound, 37° C., pH 7.4
Experimental: Human liver microsomes (Cat. NO.: 452117, Corning, USA) were preincubated with test compound for 10 minutes at 37° C. in 100 mM potassium phosphate buffer, pH 7.4. The reactions were initiated by adding NADPH regenerating system. The final incubation mixtures contained 1 μM test compound, 0.5 mg/mL liver microsomal protein, 1 mM MgCl2, 1 mM NADP, 1 unit/mL isocitric dehydrogenase and 6 mM isocitric acid in 100 mM potassium phosphate buffer, pH 7.4. After incubation times of 0, 3, 6, 9, 15 and 30 minutes at 37° C., 300 μL of cold ACN (including internal standard) was added to 100 μL incubation mixture to terminate the reaction. Following precipitation and centrifugation, 100 μL supernatant will be taken out and added 300 μL water. The amount of compound remaining in the samples was determined by LC-MS/MS. Controls of no NADPH regenerating system at zero and 30 minutes were also prepared and analyzed. The results were categorized as: low (<7.0 mL/min/kg), medium (7.0-16.2 mL/min/kg) and high (16.2-23.2 mL/min/kg).

Chain of CD73 (P21589 27-574): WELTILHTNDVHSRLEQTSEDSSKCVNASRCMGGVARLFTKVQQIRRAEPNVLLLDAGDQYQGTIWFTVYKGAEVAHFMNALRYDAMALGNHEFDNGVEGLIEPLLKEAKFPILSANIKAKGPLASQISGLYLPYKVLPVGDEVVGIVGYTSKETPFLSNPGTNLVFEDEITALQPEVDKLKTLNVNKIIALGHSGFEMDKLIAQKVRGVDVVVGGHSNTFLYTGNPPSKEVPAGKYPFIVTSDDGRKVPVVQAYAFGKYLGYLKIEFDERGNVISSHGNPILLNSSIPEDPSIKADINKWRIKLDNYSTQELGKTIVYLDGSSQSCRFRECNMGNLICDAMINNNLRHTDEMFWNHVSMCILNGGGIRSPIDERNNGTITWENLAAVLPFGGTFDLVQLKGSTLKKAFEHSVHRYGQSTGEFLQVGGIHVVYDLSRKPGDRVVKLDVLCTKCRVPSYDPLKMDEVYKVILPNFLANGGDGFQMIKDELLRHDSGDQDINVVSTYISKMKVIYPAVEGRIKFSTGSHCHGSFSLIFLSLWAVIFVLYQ

Cc1nn(C)c2nnc(-c3c[nH]c(=O)[nH]c3=O)cc12 [Example 1, 5-(1,3-dimethylpyrazolo[3,4-c]pyridazin-5-yl)-1H-pyrimidine-2,4-dione]
IC50 (CD73): 56.9 nM | CL (h) [1]: 8.14 mL/min/kg

Cn1ncc2nnc(-c3c[nH]c(=O)[nH]c3=O)cc21 [Example 3, 5-(1-methylpyrazolo[4,3-c]pyridazin-6-yl)-1H-pyrimidine-2,4-dione]
IC50 (CD73): 104 nM

Cn1nnc2nnc(-c3c[nH]c(=O)[nH]c3=O)cc21 [Example 4, 5-(1-methyltriazolo[4,5-c]pyridazin-6-yl)-1H-pyrimidine-2,4-dione]
IC50 (CD73): 159 nM | CL (h) [1]: 6.15 mL/min/kg

CC(c1ccccc1)c1nn(C)c2nnc(-c3c[nH]c(=O)[nH]c3=O)cc12 (stereo not drawn) [Example 5, 5-[1-methyl-3-(1-phenylethyl)pyrazolo[3,4-c]pyridazin-5-yl]-1H-pyrimidine-2,4-dione]
CL (h) [1]: 6.15 mL/min/kg

Cn1nc(C2(c3ccccc3)CC2)c2cc(-c3c[nH]c(=O)[nH]c3=O)nnc21 [Example 6, 5-[1-methyl-3-(1-phenylcyclopropyl)pyrazolo[3,4-c]pyridazin-5-yl]-1H-pyrimidine-2,4-dione]
IC50 (CD73): 12.9 nM | CL (h) [1]: 6.15 mL/min/kg

Cn1nc(Cl)c2nnc(-c3c[nH]c(=O)[nH]c3=O)cc21 [Example 9, 5-(3-chloro-1-methyl-pyrazolo[4,3-c]pyridazin-6-yl)-1H-pyrimidine-2,4-dione]
IC50 (CD73): 46.7 nM | CL (h) [1]: 6.15 mL/min/kg

CC(Oc1nn(C)c2nnc(-c3c[nH]c(=O)[nH]c3=O)cc12)c1ccccc1 (stereo not drawn) [Example 10, 5-[1-methyl-3-(1-phenylethoxy)pyrazolo[3,4-c]pyridazin-5-yl]-1H-pyrimidine-2,4-dione]
CL (h) [1]: 6.15 mL/min/kg

CC(Oc1nn(C)c2nnc(-c3c[nH]c(=O)[nH]c3=O)cc12)c1cccc(C#N)c1 (stereo not drawn) [Example 11, 3-[1-[5-(2,4-dioxo-1H-pyrimidin-5-yl)-1-methyl-pyrazolo[3,4-c]pyridazin-3-yl]oxyethyl]benzonitrile]
IC50 (CD73): 2.9 nM | CL (h) [1]: 6.15 mL/min/kg

CC(Oc1nn(C)c2nnc(-c3c[nH]c(=O)[nH]c3=O)cc12)c1ccc(C#N)cc1 (stereo not drawn) [Example 12, 4-[1-[5-(2,4-dioxo-1H-pyrimidin-5-yl)-1-methyl-pyrazolo[3,4-c]pyridazin-3-yl]oxyethyl]benzonitrile]
IC50 (CD73): 3.4 nM | CL (h) [1]: 6.15 mL/min/kg

CC(Oc1nn(C)c2nnc(-c3c[nH]c(=O)[nH]c3=O)cc12)c1ccccc1Cl (stereo not drawn) [Example 13, 5-[3-[1-(2-chlorophenyl)ethoxy]-1-methyl-pyrazolo[3,4-c]pyridazin-5-yl]-1H-pyrimidine-2,4-dione]
IC50 (CD73): 5.5 nM | CL (h) [1]: 7.84 mL/min/kg

CC(Oc1nn(C)c2nnc(-c3c[nH]c(=O)[nH]c3=O)cc12)c1cccc(Cl)c1 (stereo not drawn) [Example 14, 5-[3-[1-(3-chlorophenyl)ethoxy]-1-methyl-pyrazolo[3,4-c]pyridazin-5-yl]-1H-pyrimidine-2,4-dione]
IC50 (CD73): 4 nM | CL (h) [1]: 7.01 mL/min/kg

CC(Oc1nn(C)c2nnc(-c3c[nH]c(=O)[nH]c3=O)cc12)c1ccc(Cl)cc1 (stereo not drawn) [Example 15, 5-[3-[1-(4-chlorophenyl)ethoxy]-1-methyl-pyrazolo[3,4-c]pyridazin-5-yl]-1H-pyrimidine-2,4-dione]
IC50 (CD73): 4.1 nM | CL (h) [1]: 6.15 mL/min/kg

CC(Oc1nn(C)c2nnc(-c3c[nH]c(=O)[nH]c3=O)cc12)c1ccc(F)cc1 (stereo not drawn) [Example 16, 5-[3-[1-(4-fluorophenyl)ethoxy]-1-methyl-pyrazolo[3,4-c]pyridazin-5-yl]-1H-pyrimidine-2,4-dione]
IC50 (CD73): 3.5 nM | CL (h) [1]: 6.15 mL/min/kg

CC(Oc1nn(C)c2nnc(-c3c[nH]c(=O)[nH]c3=O)cc12)c1ccccn1 (stereo not drawn) [Example 17, 5-[1-methyl-3-[1-(2-pyridyl)ethoxy]pyrazolo[3,4-c]pyridazin-5-yl]-1H-pyrimidine-2,4-dione]
IC50 (CD73): 3.7 nM | CL (h) [1]: 6.15 mL/min/kg

CC(Oc1nn(C)c2nnc(-c3c[nH]c(=O)[nH]c3=O)cc12)c1nn(C)cc1Cl (stereo not drawn) [Example 23, 5-[3-[1-(4-chloro-1-methyl-pyrazol-3-yl)ethoxy]-1-methyl-pyrazolo[3,4-c]pyridazin-5-yl]-1H-pyrimidine-2,4-dione]
IC50 (CD73): 58.6 nM

Cn1nc(O[C@H](c2ccccc2)C(F)F)c2cc(-c3c[nH]c(=O)[nH]c3=O)nnc21 [Example 28, 5-[3-[(1R)-2,2-difluoro-1-phenyl-ethoxy]-1-methyl-pyrazolo[3,4-c]pyridazin-5-yl]-1H-pyrimidine-2,4-dione]
CL (h) [1]: 6.15 mL/min/kg

Cn1nc(O[C@@H](c2ccccn2)C(F)(F)F)c2cc(-c3c[nH]c(=O)[nH]c3=O)nnc21 [Example 29B, 5-[1-methyl-3-[(1S)-2,2,2-trifluoro-1-(2-pyridyl)ethoxy]pyrazolo[3,4-c]pyridazin-5-yl]-1H-pyrimidine-2,4-dione]
CL (h) [1]: 6.15 mL/min/kg

Cn1nc(O[C@@H](c2ccccc2)C(F)(F)F)c2cc(-c3c[nH]c(=O)[nH]c3=O)nnc21 [Example 30B, 5-[1-methyl-3-[(1S)-2,2,2-trifluoro-1-phenyl-ethoxy]pyrazolo[3,4-c]pyridazin-5-yl]-1H-pyrimidine-2,4-dione]
CL (h) [1]: 8.44 mL/min/kg

Cn1nc(O[C@H](c2ccccn2)C(F)F)c2cc(-c3c[nH]c(=O)[nH]c3=O)nnc21 [Example 31A, 5-[3-[(1R)-2,2-difluoro-1-(2-pyridyl)ethoxy]-1-methyl-pyrazolo[3,4-c]pyridazin-5-yl]-1H-pyrimidine-2,4-dione]
CL (h) [1]: 6.15 mL/min/kg

Cn1nc(O[C@@H](c2ccccn2)C(F)F)c2cc(-c3c[nH]c(=O)[nH]c3=O)nnc21 [Example 31B, 5-[3-[(1S)-2,2-difluoro-1-(2-pyridyl)ethoxy]-1-methyl-pyrazolo[3,4-c]pyridazin-5-yl]-1H-pyrimidine-2,4-dione]
CL (h) [1]: 6.15 mL/min/kg

Cn1nc(O[C@H](c2ccc(F)cn2)C(F)F)c2cc(-c3c[nH]c(=O)[nH]c3=O)nnc21 [Example 32A, 5-[3-[(1R)-2,2-difluoro-1-(5-fluoro-2-pyridyl)ethoxy]-1-methyl-pyrazolo[3,4-c]pyridazin-5-yl]-1H-pyrimidine-2,4-dione]
CL (h) [1]: 6.15 mL/min/kg

Cn1nc(O[C@@H](c2ccc(F)cn2)C(F)F)c2cc(-c3c[nH]c(=O)[nH]c3=O)nnc21 [Example 32B, 5-[3-[(1S)-2,2-difluoro-1-(5-fluoro-2-pyridyl)ethoxy]-1-methyl-pyrazolo[3,4-c]pyridazin-5-yl]-1H-pyrimidine-2,4-dione]
CL (h) [1]: 6.15 mL/min/kg

Cc1cccc([C@@H](Oc2nn(C)c3nnc(-c4c[nH]c(=O)[nH]c4=O)cc23)C(F)F)n1 [Example 33A, 5-[3-[(1R)-2,2-difluoro-1-(6-methyl-2-pyridyl)ethoxy]-1-methyl-pyrazolo[3,4-c]pyridazin-5-yl]-1H-pyrimidine-2,4-dione]
CL (h) [1]: 6.15 mL/min/kg

Cc1cccc([C@H](Oc2nn(C)c3nnc(-c4c[nH]c(=O)[nH]c4=O)cc23)C(F)F)n1 [Example 33B, 5-[3-[(1S)-2,2-difluoro-1-(6-methyl-2-pyridyl)ethoxy]-1-methyl-pyrazolo[3,4-c]pyridazin-5-yl]-1H-pyrimidine-2,4-dione]
CL (h) [1]: 6.15 mL/min/kg

CC(N(C)c1nn(C)c2nnc(-c3c[nH]c(=O)[nH]c3=O)cc12)C(C)(C)C (stereo not drawn) [Example 34, 5-[1-methyl-3-[methyl(1,2,2-trimethylpropyl)amino]pyrazolo[3,4-c]pyridazin-5-yl]-1H-pyrimidine-2,4-dione]
IC50 (CD73): 5.5 nM

CC(C1CCCC1)N(C)c1nn(C)c2nnc(-c3c[nH]c(=O)[nH]c3=O)cc12 (stereo not drawn) [Example 35, 5-[3-[1-cyclopentylethyl(methyl)amino]-1-methyl-pyrazolo[3,4-c]pyridazin-5-yl]-1H-pyrimidine-2,4-dione]
IC50 (CD73): 2.1 nM

Cc1nc([C@H](C)Oc2nn(C)c3nnc(-c4c[nH]c(=O)[nH]c4=O)cc23)ccc1F [Example 40, 5-[3-[(1S)-1-(5-fluoro-6-methyl-2-pyridyl)ethoxy]-1-methyl-pyrazolo[3,4-c]pyridazin-5-yl]-1H-pyrimidine-2,4-dione]
CL (h) [1]: 6.15 mL/min/kg

Cc1cccc([C@H](C)Oc2nn(C)c3nnc(-c4c[nH]c(=O)[nH]c4=O)cc23)n1 [Example 41, 5-[1-methyl-3-[(1S)-1-(6-methyl-2-pyridyl)ethoxy]pyrazolo[3,4-c]pyridazin-5-yl]-1H-pyrimidine-2,4-dione]
CL (h) [1]: 8.11 mL/min/kg
